Reference: US6296785A, “Indeno-fused photochromic naphthopyrans” (PPG Industries Ohio, Inc., priority 2000, dated 2001)

Columns and labels:
Assay type in all cases: physicochemical
[1] = Relative ΔOD at Saturation Test; conditions: ΔOD at saturation (Band A)/ΔOD at saturation (Band B)×100
From the text: In accordance with the present invention, it has now been discovered that certain novel indeno[2,1-f]naphtho[1,2-b]pyrans having two absorption bands in the activated (colored) state, an acceptable fade rate, high activated intensity, a high coloration rate and a rating of 80 or higher in the Relative ΔOD at Saturation Test may be prepared. The Relative ΔOD at Saturation Test is described in Example 21. The ratings of the test are defined herein as the result obtained when the optical density of band "A" is divided by the optical density of band "B" and multiplied by 100. It is believed that compounds having a rating of 80 or higher are most valuable for formulating neutral grays, greens and browns for commercial photochromic ophthalmic eyeware.
(§1) Testing was done with the photochromic compounds described in Examples 1 through 20 and Comparative Examples 1 through 3 in the following manner. A quantity of photochromic compound calculated to yield a 1.5×10^-3 molal solution was added to a flask containing 50 grams of a monomer blend of 4 parts ethoxylated bisphenol A dimethacrylate (BPA 2EO DMA), 1 part poly(ethylene glycol) 600 dimethacrylate, and 0.033 weight percent 2,2'-azobis(2-methyl propionitrile) (AIBN). The photochromic compound was dissolved into the monomer blend by stirring and gentle heating, if necessary. After a clear solution was obtained, it was poured into a flat sheet mold having the interior dimensions of 2.2 mm×6 inches (15.24 cm)×6 inches (15.24 cm). The mold was sealed and placed in a horizontal air flow, programmable oven programmed to increase the temperature from 40° C. to 95° C. over a 5 hour interval, hold the temperature at 95° C. for 3 hours, lower it to 60° C. over a 2 hour interval and then hold it at 60° C. for 16 hours. After the mold was opened, the polymer sheet was cut using a diamond blade saw into 2 inch (5.1 centimeters) test squares.
(§2) The photochromic test squares of Part A were tested for photochromic response rates on an optical bench. Prior to testing on the optical bench, the photochromic test squares were exposed to 365 nanometer ultraviolet light for about 15 minutes to activate the photochromic compounds and then placed into a 76° C. oven for about 15 minutes to bleach the photochromic compounds. The test squares were then cooled to room temperature, exposed to fluorescent room lighting for at least 2 hours and then kept covered for at least 2 hours prior to testing on an optical bench maintained at 72° F. (22.2° C.). The bench was fitted with a 250 watt Xenon arc lamp, a remote controlled shutter, a copper sulfate bath acting as a heat sink for the arc lamp, a Schott WG-320 nm cut-off filter which removes short wavelength radiation; neutral density filter(s) and a sample holder in which the square to be tested was inserted. The power output of the optical bench, i.e., the dosage of light that the sample lens would be exposed to, was calibrated with a photochromic test square used as a reference standard. […] The UV-A detector was placed into the sample holder and the light output was measured. Adjustments to the power output were made by increasing or decreasing the lamp wattage or by adding or removing neutral density filters in the light path.
Change in optical density (ΔOD) was determined by inserting a test square in the bleached state into the sample holder, adjusting the transmittance scale to 100%, opening the shutter from the Xenon lamp to provide ultraviolet radiation to change the test square from the bleached state to an activated (i.e., darkened) state, measuring the transmittance in the activated state, and calculating the change in optical density according to the formula: ΔOD=log(100/% Ta), where % Ta is the percent transmittance in the activated state and the logarithm is to the base 10. […]

[2] = lambda max (Vis) of activated photochromic test squares in a Varian Cary 3 uv-visible spectrophotometer; conditions: activated form in test square
Method: as §1
The lambda max (Vis) is the wavelength in the visible spectrum at which the maximum absorption of the activated (colored) form of the photochromic compound in a test square occurs. The lambda max (Vis) wavelengths reported in Table 1 were determined by testing the photochromic test square polymerizates of Part A in a Varian Cary 3 uv-visible spectrophotometer. The bleach rate (T 1/2) is the time interval in seconds for the absorbance of the activated form of the photochromic compound in the test squares to read one half the highest absorbance at room temperature (72° F., 22.2° C.) after removal of the source of activating light.
For each lambda max visible, the corresponding optical density (Δ OD/Min and Δ OD at saturation) for the desired compounds of the Examples and Comparative Examples are tabulated in Table 1 for the two bands (A and B) of peak absorption for each compound. Table 1 also includes the bleach rate (T 1/2) for each of the compounds as measured at band B. The ratings of the Relative Δ OD at Saturation Test for the bands A and B of each of the Examples and Comparative Examples are calculated as follows: Δ OD at saturation (Band A)/Δ OD at saturation (Band B)×100.

[3] = photochromic response of test squares on an optical bench (sensitivity, saturation optical density, bleach rate); conditions: for ΔOD @ Saturation (Band A) / ΔOD @ Saturation (Band B): UV exposure 15 minutes; for ΔOD @ Saturation (Band A) / Sensitivity ΔOD/MIN (Band A) / ΔOD @ Saturation (Band B) / Sensitivity ΔOD/MIN (Band B): 72° F. (22.2° C.), polymer test square; for Sensitivity ΔOD/MIN (Band A) / Sensitivity ΔOD/MIN (Band B): first five (5) seconds of UV exposure, expressed per minute; for Bleach Rate T 1/2: measured at band B, room temperature (72° F., 22.2° C.) after removal of activating light
Method: as §1, §2
A monitoring, collimated beam of light from a tungsten lamp was passed through the square at a small angle (approximately 30°) normal to the square. After passing through the square, the light from the tungsten lamp was directed to a detector through Spectral Energy Corp. GM-200 monochromator set at the previously determined visible lambda max of the photochromic compound being measured. The output signals from the detector were processed by a radiometer.
Change in optical density (ΔOD) was determined by inserting a test square in the bleached state into the sample holder, adjusting the transmittance scale to 100%, opening the shutter from the Xenon lamp to provide ultraviolet radiation to change the test square from the bleached state to an activated (i.e., darkened) state, measuring the transmittance in the activated state, and calculating the change in optical density according to the formula: ΔOD=log(100/% Ta), where % Ta is the percent transmittance in the activated state and the logarithm is to the base 10.
The ΔOD/Min, which represents the sensitivity of the photochromic compound's response to UV light, was measured over the first five (5) seconds of UV exposure, then expressed on a per minute basis. The saturation optical density (ΔOD@ Saturation) was taken under identical conditions as the ΔOD/Min, except UV exposure was continued for 15 minutes. […]

Compound	Relative ΔOD at Saturation (rating) [1]	λ MAX Vis (Band A) [2]	λ MAX Vis (Band B) [2]	ΔOD @ Saturation (Band A) [3]	Sensitivity ΔOD/MIN (Band A) [3]	ΔOD @ Saturation (Band B) [3]	Sensitivity ΔOD/MIN (Band B) [3]	Bleach Rate T 1/2 [3]
CCC1(O)c2ccccc2-c2c1c1c(c3cc(OC)c(OC)cc23)OC(c2ccc(OC)cc2)(c2ccc(N3CCOCC3)cc2)C=C1 (stereo not drawn) [Example 17, 6,7-dimethoxy-3-(4-methoxyphenyl)-3-(4-morpholinophenyl)-13-hydroxy-13-ethyl-3H,13H-indeno[2,1-f]naphtho[1,2-b]pyran]	104	480 nm	603 nm	0.25	0.21 ΔOD/MIN	0.24	0.18 ΔOD/MIN	1.4 min
COc1ccc(C2(c3ccc(N(C)C)cc3)C=Cc3c4c(c5cc(OC)c(OC)cc5c3O2)-c2ccccc2C4(C)C)cc1 (stereo not drawn) [Example 10, 3-(4-methoxyphenyl)-3-(4-dimethylaminophenyl)-6,7-dimethoxy-13,13-dimethyl-3H,13H-indeno[2,1-f]naphtho[1,2-b]pyran]	82	500 nm	615 nm	0.41	0.20 ΔOD/MIN	0.50	0.28 ΔOD/MIN	2.17 min
CCCCC1(O)c2ccccc2-c2c1c1c(c3cc(OC)c(OC)cc23)OC(c2ccc(OC)cc2)(c2ccc(OC)cc2)C=C1 (stereo not drawn) [Example 15, 3,3-di(4-methoxyphenyl)-6,7-dimethoxy-13-hydroxy-13-butyl-3H,13H-indeno[2,1,-f]naphtho[1,2-b]pyran]	168	457 nm	579 nm	0.37	0.29 ΔOD/MIN	0.22	0.18 ΔOD/MIN	1.27 min
CCC1(O)c2cc(OC)c(OC)cc2-c2c1c1c(c3ccccc23)OC(c2ccc(OC)cc2)(c2ccc(OC)cc2)C=C1 (stereo not drawn) [Comp. Ex. 3, 3,3-di(4-methoxyphenyl)-10,11-dimethoxy-13-hydroxy-13-ethyl-3H-13H-indeno[2,1-f]naphtho[1,2-b]pyran, reference compound]	71	445 nm	600 nm	0.34	0.32 ΔOD/MIN	0.48	0.48 ΔOD/MIN	1.27 min
COc1ccc(C2(c3ccc(OC)cc3)C=Cc3c4c(c5cc(OC)c(OC)cc5c3O2)-c2ccccc2C4(C)C)cc1 [Example 4, 3,3-di(4-methoxyphenyl)-6,7-dimethoxy-13,13-dimethyl-3H-13H-indeno[2,1-f]naphtho[1,2-b]pyran]	156	455 nm	576 nm	1.11	0.39 ΔOD/MIN	0.71	0.22 ΔOD/MIN	4.45 min
CCC1(O)c2cc(OC)c(OC)cc2-c2c1c1c(c3cc(OC)c(OC)cc23)OC(c2ccc(OC)cc2)(c2ccc(N3CCOCC3)cc2)C=C1 (stereo not drawn) [Example 12, 3-(4-methoxyphenyl)-3-(4-morpholinophenyl)-6,7,10,11-tetramethoxy-13-hydroxy-13-ethyl-3H,13H-indeno[2,1-f]naphtho[1,2-b]pyran]	106	480 nm	632 nm	0.46	0.26 ΔOD/MIN	0.43	0.27 ΔOD/MIN	2.17 min
CCC1(O)c2cc(OC)c(OC)cc2-c2c1c1c(c3cc(OC)c(OC)cc23)OC(c2ccc(OC)cc2)(c2ccc(OC)cc2)C=C1 (stereo not drawn) [Example 3, 3,3-di(4-methoxyphenyl)-6,7,10,11-tetramethoxy-13-hydroxy-13-ethyl-3H,13H-indeno[2,1-f]naphtho[1,2-b]pyran]	151	460 nm	623 nm	0.62	0.34 ΔOD/MIN	0.41	0.24 ΔOD/MIN	2.58 min
COc1ccc(C2(c3ccc(N4CCOCC4)cc3)C=Cc3c4c(c5cc(OC)c(OC)cc5c3O2)-c2ccccc2C4(C)O)cc1 (stereo not drawn) [Example 19, 3-(4-methoxyphenyl)-3-(4-morpholinophenyl)-6,7-dimethoxy-13-hydroxy-13-methyl-3H,13H-indeno[2,1-f]naphtho[1,2-b]pyran]	97	481 nm	603 nm	0.34	0.18 ΔOD/MIN	0.35	0.22 ΔOD/MIN	1.63 min
COc1ccc(C2(c3ccc(OC)cc3)C=Cc3c4c(c5cc(OC)c(OC)cc5c3O2)-c2cc(OC)c(OC)cc2C4(C)C)cc1 [Example 1, 3,3-di(4-methoxyphenyl)-6,7,10,11-tetramethoxy-13,13-dimethyl-3H,13H-indeno[2,1-f]naphtho[1,2-b]pyran]	125	445 nm	611 nm	0.99	0.33 ΔOD/MIN	0.79	0.24 ΔOD/MIN	8.77 min
